Assay results: article PMC4445002, “Efficient inhibition of tumor angiogenesis and growth by a synthetic peptide blocking S100A4-methionine aminopeptidase 2 interaction” (Molecular Therapy. Methods & Clinical Development, 2015)

Columns and labels:
[1] = test system: MetAP2; conditions: cited from earlier work
[2] = test system: ERK1/2; design: method as in PMID 19716858; conditions: cited from earlier work
[3] = test system: MetAP2; design: method as in PMID 16790550, PMID 22229417; conditions: cited from earlier work
[4] = test system: S100A4; experiment: FRET acceptor-photobleaching analysis in live HeLa cells; format: binding; conditions: ECFP fusion cotransfected with EYFP-S100A4, acceptor photobleaching, n = 8–11, **P < 0.01, ***P < 0.001
[5] = test system: S100A4-MetAP2 interaction; experiment: In vitro GST pull-down binding assay S100A4-MetAP2
[6] = test system: S100A4; experiment: Surface plasmon resonance binding to GST-S100A4; conditions: Biacore 3000, captured GST-S100A4, SBD 1 mmol/l, HBS-P pH 7.4, with or without 1 mmol/l CaCl2, 25 °C, duplicated experiment
Text: The binding of the SBD peptide to S100A4 was examined by Surface plasmon resonance (SPR) with a Biacore 3000 biosensor and GST Capture kit (GE Healthcare, Little Chalfont, UK) according to the manufacturer’s instructions. Goat anti-GST antibody was immobilized on two flow cells of the sensor chip (CM-5) using a standard amine coupling procedure, and then recombinant GST-S100A4 or GST as a negative control was captured. The SBD peptide (1 mmol/l) in HBS-P running buffer (10 mmol/l Hepes, pH 7.4, 150 mmol/l NaCl, 0.005% P20) in the presence or absence of 1 mmol/l CaCl2 was injected over two flow cells of the chip at a flow rate of 10 ml/minute at 25 °C for 5 minutes. The response from the control surface was subtracted, and the data plotted as Resonance Units (RU).

CO[C@@H]1[C@H](OC(=O)/C=C/C=C/C=C/C=C/C(=O)O)CC[C@]2(CO2)[C@H]1[C@@]1(C)O[C@@H]1CC=C(C)C [Fumagillin, fumagillin]
effect on MetAP2 auto-proteolytic activity [1]: inhibits MetAP2’s auto-proteolytic activity
effect on MetAP2 turnover rate [1]: decreases its turnover rate
effect on ERK1/2 activity and cell growth [2]: inhibition of the activity of ERK1/2 and cell growth
antiangiogenic activity [3]: potent antiangiogenic agents

CO[C@@H]1[C@H](OC(=O)NC(=O)CCl)CC[C@]2(CO2)[C@H]1[C@@]1(C)O[C@@H]1CC=C(C)C [TNP-470]
antiangiogenic activity [3]: potent antiangiogenic agents

ECFP-CBD: CBD sequence subcloned into pECFP-C1, expressed in HeLa cells (TMIEICEKLEDCSRKLIKENGLNAGLAFPTGCSLNNCA; left off: ECFP, end not stated, kept)
FRET efficiency with EYFP-S100A4 vs negative controls [4]: but not for ECFP-CBD/EYFP-S100A4 (orange bars), were significantly higher than those in respective negative controls

ECFP-NBD: NBD sequence subcloned into pECFP-C1, expressed in HeLa cells (REAAEAHRQVRKYVMSWIKPGMTMIEICEKLEDCSRKLI; left off: ECFP, end not stated, kept)
FRET efficiency with EYFP-S100A4 vs negative controls [4]: significantly higher than those in respective negative controls

ECFP-SBD: SBD sequence subcloned into pECFP-C1, expressed in HeLa cells (REAAEAHRQVRKYVMSWIKPGMTMIEICEKLEDCSRKLIKENGLNAGLAFPTGCSLNNCA; left off: ECFP, end not stated, kept)
FRET efficiency with EYFP-S100A4 vs negative controls [4]: significantly higher than those in respective negative controls

SBD: 60 amino acid residues spanning from Arg170 to Ala229 of MetAP2 (REAAEAHRQVRKYVMSWIKPGMTMIEICEKLEDCSRKLIKENGLNAGLAFPTGCSLNNCA)
inhibition of S100A4-MetAP2 interaction (GST pull-down) ([5]; [35S]MetAP2, GST/S100A4, 1 mmol/l CaCl2, peptide at 25-fold molar excess of MetAP2): efficiently blocked the interaction between S100A4 and MetAP2
binding to S100A4 (SPR) [6]: occurred only in the presence of Ca^2+

methionine aminopeptidase 2 [MetAP2]
binding of MetAP2 to S100A4 (GST pull-down) ([5]; [35S]MetAP2, GST/S100A4, 1 mmol/l CaCl2 or 1 mmol/l EDTA): S100A4 bound to MetAP2 in a Ca^2+-dependent manner
